# Experiments:
# Type in all cases: cell-based, Mycobacterium tuberculosis
# [1] = system: Mtb InhA-OE (H37Rv-LP:fabG1/inhA-c-15t)
# Mtb ∆cyd = system: Mtb ∆cyd
# Mtb EthA C253R = system: Mtb EthA C253R
compound,measurement,setting,value
"3-(1,3-bis(4-chlorophenyl)-1H-pyrazol-5-yl)-N-(methylsulfonyl)propanamide [Compound 8]",MIC,[1],0.24 µM
same,MIC,Mtb ∆cyd,4 µM
"CCc1cc(C(N)=S)ccn1 [ETH, Ethionamide]",MIC,Mtb EthA C253R,>125 µM

# — paper PMC10500703 (Journal of medicinal chemistry, 2021)
